Measured values taken from patent publication US11952593B2, “Detection and treatment of daughter number variations in cancer cells” (PharmacoGenetics Limited, priority 2020, dated 2024).

Assays:
HeLa cells = assay: Daughter-cell subgroups P1 through P8 in mitoses with DNV, HeLa; format: cell-based, human; conditions: 24 hours, wogonin 50 μM, 5-FU 20 μM
From the text: “Daughter Number Variation” is a process that occurs during mitosis, where more than two daughter cells are produced per mitotic division. It is a two-stage process, wherein cell divisions of mono-nucleate, bi-nucleate, tri-nucleate and tetra-nucleate mother cells at Stage 1 produce subgroups of single mono-nucleate cells (herein referred to as P1), and subgroups containing one bi-nucleate cell and two mono-nucleate cells (herein referred to as P2). Stage 1 is followed by Stage 2, during which time some of the daughter cells from Stage 1 fuse to produce multi-nucleate cell subgroups, where the different subgroups differ with respect to the number of constituent cells and their nucleate status (herein referred to as P3 through P8). All the subgroups from a single DNV mitosis stay close to one another to form a distinct cluster when the cell culture is not overly dense with cells.
P1 subgroup cells are daughter mono-nucleate cells resulting from mitoses with DNV that have not undergone any post-mitotic cell fusion. P2 subgroup daughter cells are clusters of one bi-nucleate cell and two mono-nucleate cells, which also have not undergone any post-mitotic cell fusion during DNV, whereas each of the multi-nucleated subgroups contains at least one cell that is generated from post-mitotic fusions between the Stage 1 cells. P3 through P8 are daughter cell subgroups, which result from cell fusions during DNV, and wherein each subgroup includes at least one multinucleate cell.
By way of example and not of limitation, there is at least one multinucleate cell with two nuclei in P3 and P5, one multinucleate cell with three nuclei in P4 and P6, one multinucleate cell with four nuclei in P7, and one multinucleate cell with five nuclei in P8, sharing the same cytoplasm. More specifically, P3 cell subgroups are clusters of one multinucleate cell with two nuclei and one mononucleate cell, P4 cell subgroups are one multinucleate cell with three nuclei, P5 cell subgroups are clusters of either two multinucleate cells with two nuclei or one multinucleate cell with two nuclei and one binucleate cell, P6 cell subgroups are clusters of one multinucleate cell with three nuclei and one mononucleate cell, P7 cell subgroups are one multinucleate cell with four nuclei, and P8 cell subgroups are one multinucleate cell with five nuclei. P1 through P8 cell subgroups are depicted in detail in FIG. 2.
The counts of P1 and P2 subgroups of cancer cells are then used to obtain their proportions based on the total number of cell subgroups P1 through P8 that resulted from mitotic DNVs during the predetermined period of time. The proportions are typically expressed as percentages. The proportion of P1 subgroup of cells is calculated as (number of P1 subgroups)+(total number of daughter cell subgroups)×100%, and the proportion of (P1 and P2) subgroup is calculated as (number of P1 subgroups+number of P2 subgroups)+(total number of daughter cell subgroups)×100%. This can also be expressed as (number of P1 subgroups)+(total number of P1 through P8 subgroups)×100%, or (number of P1 subgroups+number of P2 subgroups)+(total number of P1 through P8 subgroups)×100%, respectively.
To investigate DNVs, the human HepG2 hepatocellular carcinoma, HeLa cervical adenocarcinoma, and A549 lung adenocarcinoma cell lines, as well as the non-cancerous RPE1 line of hTRET-immortalized retina epithelial cells, were obtained from the American Type Culture Collection (ATCC, Manassas, Va., USA) and cultivated in Dulbecco's Modified Eagle Medium (DMEM) supplemented with 10% fetal bovine serum (Gemini Bio-Products, Sacramento. Calif.) under a humidified atmosphere of 5% C02 at 37° C. […]

[1] = test system: A549 lung adenocarcinoma cells; assay: Time-lapse microscopy count of multi-daughter divisions (DNV frequency), A549; format: cell-based, human; conditions: wogonin 50 μM, 5-FU 20 μM
Procedure: To investigate DNVs, the human HepG2 hepatocellular carcinoma, HeLa cervical adenocarcinoma, and A549 lung adenocarcinoma cell lines, as well as the non-cancerous RPE1 line of hTRET-immortalized retina epithelial cells, were obtained from the American Type Culture Collection (ATCC, Manassas, Va., USA) and cultivated in Dulbecco's Modified Eagle Medium (DMEM) supplemented with 10% fetal bovine serum (Gemini Bio-Products, Sacramento. Calif.) under a humidified atmosphere of 5% C02 at 37° C. After 24 hours, the old medium was replaced by acidic DMEM growth medium buffered by 15 mM 2-(N-morpholino)-ethanesulfonic acid.HCl (MES) at pH 6.4, neutral DMEM growth medium buffered by 15 mM 3-(N-morpholino)propanesulfonic acid.HCl (MOPS) at pH 7.4, alkaline growth medium buffered by 15 mM tris(hydroxymethyl)aminomethane.HCl (Tris) at pH 8.4, or neutral DMEM growth medium containing wogonin (50 μM) or 5-FU (20 μM). Using phase contrast microscopy, time-lapse photographs were recorded at different positions of the wells at 15-minute intervals for 24 hours using the Nikon ECLIPSE Ti Live Cell Imaging Observatory, enabling the count of P1 through P8 patterns at the end of Stage 2 of the DNV process (FIG. 1). All the images were photographed at 100× magnification. Altemately, using fluorescence microscopy, the cells were seeded into 12 well plates at 1×10^3 per well and stained with Hoechst 33342 ([…], Thermofisher) for 30 minutes in an incubator at 37° C. After 30 minutes, culture medium was replaced by various treatment media and placed under the Nikon ECLIPSE Ti Live Cell Imaging Observatory for 24 hours. For the HeLa, HepG2 and A549 cells, the various treatments were also extended to 5 days. Because the RPE1 cells yielded no DNVs after 24 hours of drug treatment, its treatment periods were not extended beyond 24 hours. All the cells were manually traced and quantified using the ImageJ software. DNV frequencies were estimated by dividing the total number of multi-daughter ([…]) divisions by the total number of cell divisions. Fluorescence staining and time-lapse microscopy were employed to differentiate between the bi-, tri-, tetra- and penta-daughter cell divisions, and to estimate the percentages of the P1 through P8 patterns in the final daughter cells generated by each of the DNV events. GraphPad Prism 5.0 software was employed for statistical analysis, and the results were presented as the mean. Significance was determined using the Student t-test (two-tailed, unpaired/unequal variances).

Structure (SMILES) | Mitoses with DNV, number (HeLa cells) | P1 + P2 subgroups, number (HeLa cells) | P1 subgroups, number (HeLa cells) | P2 subgroups, % of all P1 through P8 subgroups (HeLa cells) | P2 subgroups, number (HeLa cells) | P3 subgroups, % of all P1 through P8 subgroups (HeLa cells) | P3 subgroups, number (HeLa cells) | P4 subgroups, number (HeLa cells) | P5 subgroups, number (HeLa cells) | P6 subgroups, number (HeLa cells) | P7 subgroups, number (HeLa cells) | P8 subgroups, number (HeLa cells) | Bi-daughter divisions, % of total divisions ([1]; A549, 24 hours) | Bi-daughter divisions, number ([1]; A549, 24 hours) | Sum of Multi-daughter Divisions, % of total mitotic divisions ([1]; A549, 24 hours) | Sum of Multi-daughter Divisions, number ([1]; A549, 24 hours) | Total number of observed divisions ([1]; A549, 24 hours) | Tri-daughter divisions, % of total divisions ([1]; A549, 24 hours) | Tri-daughter divisions, number ([1]; A549, 24 hours) | Bi-daughter divisions, % of total divisions ([1]; A549, 5 days) | further results
O=c1[nH]cc(F)c(=O)[nH]1 [5-FU, 5-flurouracil] | 13 | 12 | 10 | (15.3) % | 2 | (7.6) % | 1 | 0 | 0 | 0 | 0 | 0 | 99.9% | 2205 | 0.13% | 3 | 2208 (100) | 0.13% | 3 | 97% | Bi-daughter divisions, number ([1]; A549, 5 days): 259; Sum of Multi-daughter Divisions, % of total mitotic divisions ([1]; A549, 5 days): 3.0%; Sum of Multi-daughter Divisions, number ([1]; A549, 5 days): 8; Tetra-daughter divisions, number ([1]; A549, 5 days): 0; Total Divisions ([1]; A549, 5 days): 267 (100); Tri-daughter divisions, % of total divisions ([1]; A549, 5 days): 3%; Tri-daughter divisions, number ([1]; A549, 5 days): 8; ≥Tetra-daughter divisions, number ([1]; A549, 5 days): 0
COc1c(O)cc(O)c2c(=O)cc(-c3ccccc3)oc12 [Wogonin, wogonin] | 31 | 19 | 16 | (9.6) % | 3 | (32.2) % | 10 | 2 | 0 | 0 | 0 | 0 | 99.6% | 1986 | 0.3% | 6 | 1992 (100) | 0.30% | 6 | 94.6% | P1 + P2 subgroups, % of all P1 through P8 subgroups (HeLa cells): (61.2) %; P1 subgroups, % of all P1 through P8 subgroups (HeLa cells): (51.6) %; P4 subgroups, % of all P1 through P8 subgroups (HeLa cells): (6.4) %; P1 + P2 subgroups, % of all P1 through P8 subgroups (HeLa cells; listed as wogonin): 61.2%; P1 subgroups, % of all P1 through P8 subgroups (HeLa cells; listed as wogonin): 51.6%; Sum of Multi-daughter Divisions, % of total mitotic divisions ([1]; A549, 24 hours, listed as wogonin): 0.30%; Bi-daughter divisions, number ([1]; A549, 5 days): 230; Sum of Multi-daughter Divisions, % of total mitotic divisions ([1]; A549, 5 days): 5.3%; Sum of Multi-daughter Divisions, number ([1]; A549, 5 days): 13; Tetra-daughter divisions, % of total divisions ([1]; A549, 5 days): 2.4%; Tetra-daughter divisions, number ([1]; A549, 5 days): 6; Total Divisions ([1]; A549, 5 days): 243 (100); Tri-daughter divisions, % of total divisions ([1]; A549, 5 days): 2.8%; Tri-daughter divisions, number ([1]; A549, 5 days): 7; ≥Tetra-daughter divisions, number ([1]; A549, 5 days): 0
